In test [1] the target is T1, Tyrosinase (Agaricus bisporus) (UniProt O42713).
T1 sequence (whole entry): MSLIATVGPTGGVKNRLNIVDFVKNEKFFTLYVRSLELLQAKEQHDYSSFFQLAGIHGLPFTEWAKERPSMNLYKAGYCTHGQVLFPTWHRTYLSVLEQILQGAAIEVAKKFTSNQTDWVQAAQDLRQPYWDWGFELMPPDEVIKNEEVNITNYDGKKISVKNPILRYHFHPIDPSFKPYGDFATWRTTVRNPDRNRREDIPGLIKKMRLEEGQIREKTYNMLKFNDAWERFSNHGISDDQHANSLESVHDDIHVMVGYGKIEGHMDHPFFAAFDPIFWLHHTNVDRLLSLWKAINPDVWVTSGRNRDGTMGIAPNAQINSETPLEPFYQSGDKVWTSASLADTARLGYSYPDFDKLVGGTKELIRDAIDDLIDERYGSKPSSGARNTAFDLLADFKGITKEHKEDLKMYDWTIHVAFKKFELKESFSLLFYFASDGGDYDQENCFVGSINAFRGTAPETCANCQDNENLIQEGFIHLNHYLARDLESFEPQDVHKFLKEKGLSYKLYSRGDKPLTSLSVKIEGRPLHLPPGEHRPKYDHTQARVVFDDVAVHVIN
Description: Inhibition of Mushroom tyrosinase

In test [2] the target is T2, Tyrosinase (Agaricus bisporus, UniProt O42713).
T2 sequence (O42713 whole entry): T1 sequence (whole entry)
Description: Inhibition of Mushroom tyrosinase

Calls of active or inactive are those of the source. No cut-off for these calls is given here.

The term IC50 denotes the concentration that gives 50% inhibition. Read a low IC50 as higher potency.

Turning to `C=C1[C@H]2C[C@H]2[C@]2(C)C=C3OC(=O)C(C)=C3C[C@@H]12`, in test [1], the result was inactive.

Regarding `C=C1CCC[C@]2(C)C[C@]3(O)OC(=O)C(C)=C3C[C@@H]12`, in test [1], the result was inactive.

Regarding `C/C1=C\Cc2c(C)coc2C/C(C)=C/CC1`, the result in test [1] was inactive.

Consider `CC1=C2C3=C4[C@](C)([C@@H]5C[C@@H]5[C@@]4(O)C[C@@H]4[C@]35OC(=O)C3=C5C[C@H]5[C@](O)(COC(=O)/C(C)=C/COC(=O)CCC(=O)OC3)[C@H]3C[C@H]3[C@]45C)[C@@H](O)[C@]2(O)OC1=O` [TIANMUSHANOL], for which the IC50 in test [2] is 358 µM.

For `CO[C@@]12OC(=O)C(C)=C1C1=C3[C@](C)([C@@H]4C[C@@H]4[C@@]3(O)C[C@@H]3[C@]14OC(=O)C1=C4C[C@H]4[C@](O)(COC(=O)/C(C)=C/COC(=O)CCC(=O)OC1)[C@H]1C[C@H]1[C@]34C)[C@H]2O`, the IC50 in test [2] was found to be 312 µM.

Take `CC1=C2C/C=C(\C)CC/C=C(\C)C[C@@H]2OC1=O`: the result in test [1] was inactive.

(Values after ChEMBL document CHEMBL1149901, “Complex sesquiterpenoids with tyrosinase inhibitory activity from the leaves of Chloranthus tianmushanensis” (J Nat Prod, 2008).)
